The subject of one experiment is adipocytes. Kind of experiment: Isoproterenol induced lipolysis in adipocytes (glycerol release). It counts as cell-based. The note with it: Iso 10 μM; inhibitor 50 μM. On the procedure: (§1) Adipocytes were stimulated by isoproterenol (Iso 10 μM) or co-cultured with pancreatic acini. The adipose triglyceride lipase (ATGL) inhibitor atglistatin or the pancreatic lipase inhibitor orlistat (50 μM each) was added in some conditions.
Glycerol release was measured as a marker of lipolysis in adipocytes. Isoproterenol induced lipolysis in adipocytes.

Experiment [1] deals with Differentiated 3T3-LI adipocytes. Kind of experiment: MCP-1 release from PTL-transfected 3T3-LI adipocytes with colipase (luminex). It counts as cell-based. To be noted: PTL + colipase 0.25 mcg/mL; orlistat 20 micromolar every 2 hours. The procedure: Differentiated 3T3-LI adipocytes with lipid droplets were transfected with adenovirus expressing pancreatic triglyceride lipase (PTL) or left as unstimulated controls. The medium was replaced with serum free medium alone or with colipase (0.25 mcg/mL). In some wells the lipase inhibitor orlistat (20 micromolar) was added every 2 hours. Cytokine release was measured as a marker of inflammatory response. MCP-1 release into the medium was measured by luminex. There was a significant release of MCP-1 only when both colipase and PTL were present. This release was prevented by orlistat (FIG. 6B).

The test system is the same in experiment [2]. Description: Glycerol release (lipolysis) from PTL-transfected 3T3-LI adipocytes with colipase. It counts as cell-based. The note with it: PTL + colipase 0.25 mcg/mL; orlistat 20 micromolar every 2 hours; over 8 hours. The procedure: Differentiated 3T3-LI adipocytes with lipid droplets were transfected with adenovirus expressing pancreatic triglyceride lipase (PTL) to induce lactate dehydrogenase (LDH) leakage or left as unstimulated controls. The medium was replaced with serum free medium alone or with colipase (0.25 mcg/mL). In some wells the lipase inhibitor orlistat (20 micromolar) was added every 2 hours. LDH leakage into the medium was measured as a marker of cell injury. […] Colipase increased this to 30-40% LDH leakage compared to controls. […] Glycerol release was measure as a marker of lipolysis. […] Colipase increased glycerol release compared to controls. Glycerol release was prevented by the lipase inhibitor orlistat (FIG. 3B).

Experiment [3] shares this test system. Description: LDH leakage from PTL-transfected 3T3-LI adipocytes with colipase. It counts as cell-based. To be noted: over 8 hours. The procedure: Differentiated 3T3-LI adipocytes with lipid droplets were transfected with adenovirus expressing pancreatic triglyceride lipase (PTL) to induce lactate dehydrogenase (LDH) leakage or left as unstimulated controls. The medium was replaced with serum free medium alone or with colipase (0.25 mcg/mL). In some wells the lipase inhibitor orlistat (20 micromolar) was added every 2 hours.
LDH leakage into the medium was measured as a marker of cell injury. […] Colipase increased this to 30-40% LDH leakage compared to controls. […] Glycerol release was measure as a marker of lipolysis. […] Colipase increased glycerol release compared to controls. Glycerol release was prevented by the lipase inhibitor orlistat (FIG. 3B).
For orientation: LDH in the medium is a marker of cell lysis.

The test system is the same in experiment [4]. Description: IL-6 release from PTL-transfected 3T3-LI adipocytes with colipase (luminex). Format: cell-based. The note with it: PTL + colipase 0.25 mcg/mL; orlistat 20 micromolar every 2 hours. On the procedure:
Differentiated 3T3-LI adipocytes with lipid droplets were transfected with adenovirus expressing pancreatic triglyceride lipase (PTL) or left as unstimulated controls. The medium was replaced with serum free medium alone or with colipase (0.25 mcg/mL). In some wells the lipase inhibitor orlistat (20 micromolar) was added every 2 hours. Cytokine release was measured as a marker of inflammatory response. IL-6 release into the medium was measured by luminex. There was a significant release of IL-6 only when both colipase and PTL were present. This release was prevented by orlistat (FIG. 6A).

The next experiment concerns pancreatic acini. Kind of experiment: Adipocyte induced necrosis in pancreatic acini (co-culture). Format: cell-based. The note with it: inhibitor 50 μM. The procedure: as §1
Co-culture of adipocytes and pancreatic acini induced necrosis in the acini.

Experiment [5] relates to rats with lethal pancreatitis. Description: Caerulein plus glyceryl trioleate lethal pancreatitis in rats. It counts as in vivo, rat. To be noted: orlistat 50 mg/kg. The procedure:
Pancreatitis was induced in rats and flow cytometry was performed on white blood cells (WBCs) from peripheral blood.
Rats (100 gm rats) were either given caerulein (20 mcg/kg BID (twice a day) intraperitoneally) to induce pancreatitis or left untreated as control animals. Some rats were also given glyceryl trioleate (3 ml intraperitoneally) to induce lactate dehydrogenase (LDH) leakage. Some rats also received the lipase inhibitor orlistat (50 mg/kg). Blood was collected from rats 2 days after induction of caerulein pancreatitis with or without administration of caerulein, glyceryl trioleate, and/or orlistat.

For a further experiment, the system named is Rat parotid acini. Kind of experiment: LDH leakage from rat parotid acini exposed to glyceryl trilinoelate, human PTL and human colipase. Format: cell-based. To be noted: glyceryl trilinoelate 300 micromolar + human PTL 1 micrograms/mL + human colipase 0.25 micrograms/mL; orlistat 50 micromolar or serum 1:4 dilution; over 4 hours. The procedure:
Cells exposed to glyceryl trilinoelate, PTL, and colipase were treated at a 1:4 dilution with either orlistat (50 micromolar), serum from mice immunized against human colipase, or serum from unimmunized mice. […] (LDH) leakage into the medium was measured over 4 hours.

As for `CN(C)C(=O)Nc1cccc(-c2ccc(N(C)C)cc2)c1` [atglistatin], the “Isoproterenol induced lipolysis (glycerol release)” value with adipocytes is reported as “inhibited”.

In the case of `CCCCCCCCCCC[C@@H](C[C@@H]1OC(=O)[C@H]1CCCCCC)OC(=O)[C@H](CC(C)C)NC=O` [orlistat], the “MCP-1 release into the medium” value in experiment [1] is listed as “prevented”. In addition, the “Glycerol release (marker of lipolysis)” value in experiment [2] is on record as “prevented”. For the same molecule, the “Isoproterenol induced lipolysis (glycerol release)” value with adipocytes is “but not orlistat, inhibited”. In experiment [3] (PTL + colipase 0.25 mcg/mL, orlistat 20 micromolar added every 2 hours), the “LDH leakage into the medium (marker of cell injury)” value is recorded as “completely prevented”. For the same molecule, the “IL-6 release into the medium” value in experiment [4] was “prevented”. Further, in the experiment on pancreatic acini, the “Adipocyte induced necrosis in pancreatic acini as measured by glycerol release” value is on record as “inhibited” and the “Adipocyte induced necrosis in pancreatic acini as measured by propidium iodide uptake” value is on record as “inhibited”. The Survival entry in experiment [5] (caerulein + glyceryl trioleate (97% mortality by day 3 without treatment)) is on record as “survive”. Moreover, the “Apoptosis of circulating cells (annexin V positive CD11b)” value in experiment [5] (caerulein + glyceryl trioleate, blood 2 days after induction) is listed as “prevented”. For the same molecule, the “LDH leakage into the medium” value in the experiment with Rat parotid acini is “significantly reduced”.

B1: Colipase: colipase polypeptide added to the medium (0.25 mcg/mL) as cofactor of pancreatic lipases (protein, UniProt P04118 23-112, looked up)
Colipase: GIIINLENGELCMNSAQCKSNCCQHSSALGLARCTSMASENSECSVKTLYGIYYKCPCERGLTCEGDKTIVGSITNTNFGICHDAGRSKQ
In the case of B1, in experiment [3] (PTL-transfected adipocytes, colipase 0.25 mcg/mL), the “LDH leakage compared to controls” value is 30-40%.

The values above are taken from patent publication US20200385489A1, “USING COLIPASE INHIBITORS TO TREAT PANCREATITIS” (Mayo Foundation for Medical Education and Research, priority 2015, published 2020).
